What was measured:
Type in all cases: cell-based, Murine
MSCs [1] = test: Cytochalasin D treatment: endogenous YAP localization and nuclear deformation in MSCs on fibronectin-coated glass coverslips; settings: versus wildtype MSCs
Experimental: For YAP localization measurements MSCs were imaged in two channels one for iRFP YAP transfected or Alexa 647 conjugated secondary antibody-stained cells (Ex 647 nm laser) and other for Hoechst-stained nuclei (Ex 405 nm laser). The principal metric for YAP quantification was the ratio of fluorescence of iRFP YAP in the nucleus to iRFP YAP in the cytoplasm and is referred to as the YAP Ratio. Image segmentation was performed using a custom MATLAB code, that segments the nucleus from Hoechst and cytoplasm from YAP and measures the ratio of total iRFP YAP fluorescence inside the nucleus to total iRFP YAP fluorescence in the cytoplasm.
(§1) To observe endogenous YAP localization, the MSCs were fixed with 4% paraformaldehyde for 15 min in room temperature and washed 3 times with PBS. The cells were permeabilized with 0.1% Triton X-100 diluted in PBS for 10 minutes. To avoid any nonspecific binding, cells were incubated with 1% bovine serum albumin (BSA) in PBS for 30 minutes at room temperature. To visualize YAP, cells were first incubated with 10 μg/ml Anti-YAP1 mouse monoclonal antibody (ab56701, Abcam™) diluted in 1% BSA in PBS overnight, followed by PBS wash and 1 hour incubation with 10 μg/ml Donkey Anti-Mouse IgG H&L (Alexa Fluor™ 647) secondary antibody (ab150107, Abcam™) diluted in 1% BSA in PBS. For nuclear characterization, nuclei were stained with 10 μg/ml Bisbenzimide Hoechst 33342 trihydrochloride (Sigma™) in PBS for 20 minutes, cells were washed with PBS.
To study the role of nuclear deformation in YAP localization, XYZ stacks of Hoechst-stained nuclei of iRFP YAP transfected MSCs were captured using confocal microscope (Leica TCS SP8, 63× objective) with a closed pinhole 0.5 AU and thin Z step size of 0.3 μm. All the XYZ stacks were analyzed using a custom MATLAB code that measures nuclear volumes, surface area, height, major axis, minor axis, and curvature. In brief, the three-dimensional XYZ stacks were, preprocessed by background subtraction threshold, and binarization. The nuclear volumes, surface area, height, major axis, and minor axis were first measured in pixels using regionprops3™ in MATLAB, which were then converted to microns. Nuclear flatness, Nuclear Eccentricity and Nuclear Aspect Ratio were measured using the following equations: […]
For nuclear curvature analysis, XYZ stacks of Hoechst-stained nuclei were resliced into 2D image sections in XY, XZ and YZ directions. For each resliced 2D nuclear image, curvature was measured across the nuclear boundary, using a curvature function in MATLAB. […] This provided us with distribution of curvature values of the complete nucleus quantified from resliced nuclear images in all three dimensions of XY, XZ and YZ separately (FIGS. 9A-9L). […]

[2] = tested on: MSCs transfected with Nesprin 2G tension sensor; test: Nesprin 2G FRET tension sensor, nuclear membrane tension in MSCs; settings: before versus after actin depolymerization
Source text: To measure nuclear membrane tension, MSCs were co-transfected Nesprin tension sensor (pcdna nesprin TS, 68127, Addgene) and iRFP-YAP plasmid. Nesprin tension sensors are fluorescent resonance energy transfer-based tension biosensors for nesprin 2G, a structural protein at the LINC complex, which links actin cytoskeleton to the nucleus. For control experiments, MSCs were transfected with Nesprin headless control (pcdna nesprin HL, 68128, Addgene), which lacks the actin-binding domain and is localized on the nuclear membrane. […]
All the image processing and analysis was performed on open-source Image J software. […] Ratio images were calculated by dividing the unmixed venus channel by the unmixed teal channel. For each image, binary masks were manually created in ImageJ to exclude pixels outside of the nuclear membrane as determined by the mVenus channel. […] Local FRET intensity and local curvature were measured using Kappa Curvature Analysis plugin in Image J. In brief, the 2D FRET images were opened in Kappa Curvature Analysis plugin and using a selection tool, points were manually selected across the nuclear membrane and a closed curvature fit was performed. […]

MSCs [3] = test: YAP localization in MSCs confined on fibronectin line patterns treated with modulators of nuclear import; settings: for YAP Ratio with increasing Kmax XY: fibronectin line patterns 1.5-8 μm, Pitstop2 30 μM 1 hour; for nuclear YAP on thick (8 μm) and thin (1.5 μm) line patterns: microscopy, FIGS. 15B-15D
Experimental: Glass coverslips were adhesively micropatterned on 22*22 mm no. 1 with a UV-based patterning system (PRIMO, Alveole Lab, Paris, France). Glass coverslips were incubated with Poly-L-Lysine (PLL, Sigma) solution (5 mg/mL) prepared in 0.1 M HEPES buffer (pH 8.5) for 1 hour at room temperature, followed by rinsing with MiliQ™ water. Positively charged PLL electrostatically adsorbed onto the negatively charged surface of silicone substrates and allowed protein attachment after printing. The coverslips were then incubated with Polyethylene glycol valeric acid (PEG-SVA, Laysan Bio) prepared in 0.1 M HEPES buffer (pH 8.5) for 30 minutes at room temperature, followed by thorough rinsing with phosphate buffer saline (PBS) pH 7. PEG-SVA acts as an antifouling brush layer that repels protein attachment. The coverslips were then covered with the UV sensitive photo-initiator solution of PLPP (Alveole Lab, Paris, France) and placed on the stage of a microscope (Nikon Ti2 Eclipse) equipped with the UV-patterning system.
To generate the patterns, open-source graphics software programs were used, Inkscape and ImageJ, to generate binary 8-bit mask image files that were loaded into PRIMO's control software. The desired pattern was generated by a digital micromirror array in the PRIMO system and projected using a 375 nm UV laser with an intensity of 29 mW/mm^2 via 20×/0.45NA objective. The projected pattern results in localized photodegradation of the antifouling PEG-SVA brush, in the shape of the desired pattern. An exposure dose of 20 seconds was adequate to complete photodegradation of the PEG-SVA brush. Following UV exposure, the coverslips were washed with PBS and incubated them for 1 hr at room temperature with 40 μg/mL fibronectin (Sigma) in PBS to adsorb the protein to the exposed PLL surface. Excess protein was rinsed off with PBS 3 times prior to cell seeding.
as §1
To identify the mechanisms involved in YAP localization via nuclear curvature, MSCs were confined on fibronectin line patterns of decreasing thickness and then exposed to various drugs that manipulate active and passive nuclear import mechanisms. Finally, MSCs were fixed and stained with Anti-YAP1 antibody and Hoechst as explained above. To inhibit active nuclear import, MSCs were treated with 40 μM Importazole (cayman chemicals) for 1 hour, it inhibits importinβ/Ran GTP nuclear import pathway. For inhibiting both active and passive nuclear import, MSCs were treated with 30 μM Pitstop2 (abcam) for 1 hour, it disrupts nuclear pore complex structure and blocks nuclear pores. […]

[4] = 1.5 μM for 2 hours, fibronectin-coated glass coverslips
[5] = Importazole 40 μM 1 hour, trans-1,2-Cyclohexanediol 258 mM 5 mins

| Structure (SMILES) | YAP Ratio (nuclear to cytoplasmic YAP, endogenous, anti-YAP antibody) (MSCs [1]; [4]) | nuclear volume (MSCs [1]; [4]) | YAP Ratio (nuclear to cytoplasmic YAP, endogenous, anti-YAP antibody) (MSCs [1]; 1.5 μM for 2 hours, fibronectin-coated glass coverslips, listed as Cyto D) | maximum nuclear curvature (Kmax XZ) / nuclear curvature distribution (MSCs [1]; Hoechst-stained nuclei, XYZ stacks, listed as Cyto D) | FRET intensity (increase = decrease in nuclear membrane tension) [2] | YAP Ratio with increasing Kmax XY (MSCs [3]; [5]) | nuclear YAP on thick (8 μm) and thin (1.5 μm) line patterns (MSCs [3]) | YAP Ratio compared with untreated MSCs (MSCs [3]; fibronectin line patterns, Importazole 40 μM 1 hour, trans-1,2-Cyclohexanediol 258 mM 5 mins) |
| --- | --- | --- | --- | --- | --- | --- | --- | --- |
| C=C1[C@@H](C)[C@H]2[C@H](Cc3ccccc3)NC(=O)[C@]23[C@H](OC(C)=O)/C=C/[C@@](C)(O)C(=O)[C@@H](C)C/C=C/[C@H]3[C@@H]1O [Cytochalasin D] | low YAP ratio | high nuclear volumes | lower YAP Ratios | lower maximum curvature in XZ | increase in FRET intensity |  |  |  |
| O=C1NC(=NS(=O)(=O)c2cccc3ccccc23)S/C1=C\c1ccc(Br)cc1 [Pitstop2] |  |  |  |  |  | complete inhibition of curvature influenced YAP Ratio | low nuclear YAP on both thick (8 μm) and thin (1.5 μm) line patterns |  |
| CC(Nc1nc(N2CCCC2)nc2ccccc12)c1ccccc1 (stereo not shown) [importazole, Importazole] |  |  |  |  |  | small increase in YAP ratios with increasing Kmax XY | low nuclear YAP on both thick (8 μm) and thin line patterns (1.5 μm) | substantially less than untreated MSCs |

From patent publication US20240344029A1, “STEM CELL DIFFERENTIATION BY CONTROLLING NUCLEAR CURVATURE” (THE ROYAL INSTITUTION FOR THE ADVANCEMENT OF LEARNING / …, priority 2023, published 2024)
